Reference: patent US20080275009A1, “ORAL ADMINISTRATION OF N-(2-CHLORO-6-METHYLPHENYL)-2-[[6-[4-(2-HYDROXYETHYL)-1-PIPERAZINYL]-2-METHYL-4-PYRIMIDINYL]AMINO]-1,3-THIAZOLE-5-CARBOXAMIDE AND SALTS THEREOF” (Bristol-Myers Squibb Company, priority 2005, published 2008)

Key:
EPH receptor = conditions: general statement, method or value not given; cited from earlier work
PDGF receptor = conditions: general statement, method or value not given; cited from earlier work
[1] = aqueous solubility of Compound I as a function of pH; type: physicochemical; conditions: aqueous medium, pH of 2 compared with pH of 5

**Q.** With `Cc1nc(Nc2ncc(C(=O)Nc3c(C)cccc3Cl)s2)cc(N2CCN(CCO)CC2)n1` [Compound I, N-(2-chloro-6-methylphenyl)-2-((6-(4-(2-hydroxyethyl)-1-piperazinyl)-2-methyl-4-pyrimidinyl)amino)-1,3-thiazole-5-carboxamide] as the molecule, how does the “inhibition of EPH receptor” value (EPH receptor) read?
**A.** potent inhibitor

**Q.** And the “inhibition of PDGF receptor” value (PDGF receptor)?
**A.** potent inhibitor

**Q.** And the aqueous solubility [1]?
**A.** higher solubility at a pH of 2 than at a pH of 5
